Assay results reported in patent publication US20240299504A1, “COMPOSITIONS AND METHODS FOR TREATING ALZHEIMERS DISEASE” (priority 2023, published 2024).

Test system: 5×FAD mice
Assay: Y-maze test
Format: in vivo, mouse
Method: Parathyroid hormone (human) was purchased from TOCRIS Bioscience (Cat #3011/1, Abingdon, United Kingdom). WT or 5×FAD mice (both male and female) were treated with PTH1-34 intermittently [once daily injection of hPTH1-34 (50 μg/Kg) or vehicle (0.9% sodium chloride) (as a control) by subcutaneous injection, starting at 2-MO, 5 days per week] as described previously. Mice were then subjected to behavioral tests and sacrificed for examinations of their bone and brain phenotypes at the indicated ages.
Mice (female and male) at the age of ˜5-MO were subjected to behavioral studies. The experimental procedures are described as previously. […] The total arm entries and the number of tri-ads were recorded to quantify the percentage of spontaneous alternation. For novel object recognition (NOR), which tests mouse's memory ability for a novel object, 20 min were recorded to analyze the time to explore the old object vs. the new object of each mouse. […] During test trials, one of the objects was replaced with a new object and mice were free to explore for another 20 min, and the time spent exploring the new object and the old object was recorded. The discrimination index is quantified as the novelty object preference, which is the time spent exploring the new object minus the time exploring the old object over the total exploration time.

**Q.** With `CC[C@H](C)[C@H](NC(=O)[C@H](CCC(=O)O)NC(=O)[C@H](CO)NC(=O)[C@@H](NC(=O)[C@@H](N)CO)C(C)C)C(=O)N[C@@H](CCC(N)=O)C(=O)N[C@@H](CC(C)C)C(=O)N[C@@H](CCSC)C(=O)N[C@@H](Cc1cnc[nH]1)C(=O)N[C@@H](CC(N)=O)C(=O)N[C@@H](CC(C)C)C(=O)NCC(=O)N[C@@H](CCCCN)C(=O)N[C@@H](Cc1cnc[nH]1)C(=O)N[C@@H](CC(C)C)C(=O)N[C@@H](CC(N)=O)C(=O)N[C@@H](CO)C(=O)N[C@@H](CCSC)C(=O)N[C@@H](CCC(=O)O)C(=O)N[C@@H](CCCN=C(N)N)C(=O)N[C@H](C(=O)N[C@@H](CCC(=O)O)C(=O)N[C@@H](Cc1c[nH]c2ccccc12)C(=O)N[C@@H](CC(C)C)C(=O)N[C@@H](CCCN=C(N)N)C(=O)N[C@@H](CCCCN)C(=O)N[C@@H](CCCCN)C(=O)N[C@@H](CC(C)C)C(=O)N[C@@H](CCC(N)=O)C(=O)N[C@@H](CC(=O)O)C(=O)N[C@H](C(=O)N[C@@H](Cc1cnc[nH]1)C(=O)N[C@@H](CC(N)=O)C(=O)N[C@@H](Cc1ccccc1)C(=O)O)C(C)C)C(C)C` [PTH1-34] as the molecule, how does the “Y maze spontaneous alternation” value (5×FAD female mice ~5-MO vs Veh-treated 5×FAD female) read?
**A.** an increase in spontaneous alternation

**Q.** And the “Y maze spontaneous alternation” value (5×FAD male mice ~5-MO vs Veh)?
**A.** positive effect on the spontaneous alternation
